Test results taken from patent publication US20240158412A1 (Faxian Therapeutics, LLC, priority 2021, published 2024).
pIC50: −log10 of the molar value.

Each molecule was assayed against USP7 (Homo sapiens, UniProt Q93009) (assay: biochemical).
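Further: fluorescence intensity readout of USP7 enzymatic activity, reaction incubated 90 min at room temperature.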
Method: Example A. Biochemical Assay of USP7 Inhibitor Potency (IC50)
Fluorescence intensity assay of USP7 activity in the presence USP7 inhibitors. Recombinant USP7 protein (catalogue number E-519) and the fluorescence substrate ubiquitin-rhodamine 110 (Rh110) (catalogue number U-555) were purchased from Boston Biochem (840 Memorial Drive, Cambridge, MA 02139). The reaction was carried out in buffer 20 mM HEPES, pH 7.3, 150 mM NaCl, 1 mM TCEP, 125 μg/mL BSA at room temperature in a black 384-well Microplate (Greiner, catalog number 781076).
Test compounds were dissolved in DMSO to make 50 mM stock solution. […] In wells of a black 384-well Microplate, 15 μl of 100 pM of USP7 enzyme was added to each well with pre-diluted compounds and incubated at room temperature for 30 minutes, followed by addition of 10 μl of ubiquitin-rhodamine 110 (Rh110) substrate to reach 160 nM final concentration. The reaction mixtures were incubated for additional 90 minutes at room temperature. The fluorescence signal of the digested substrate was measured on an EnVision microplate reader (PerkinElmer,), using excitation at 485 nm and emission at 535 nm. The IC50 values were calculated using XLfit software.

USP7, sequence (Q93009 whole entry): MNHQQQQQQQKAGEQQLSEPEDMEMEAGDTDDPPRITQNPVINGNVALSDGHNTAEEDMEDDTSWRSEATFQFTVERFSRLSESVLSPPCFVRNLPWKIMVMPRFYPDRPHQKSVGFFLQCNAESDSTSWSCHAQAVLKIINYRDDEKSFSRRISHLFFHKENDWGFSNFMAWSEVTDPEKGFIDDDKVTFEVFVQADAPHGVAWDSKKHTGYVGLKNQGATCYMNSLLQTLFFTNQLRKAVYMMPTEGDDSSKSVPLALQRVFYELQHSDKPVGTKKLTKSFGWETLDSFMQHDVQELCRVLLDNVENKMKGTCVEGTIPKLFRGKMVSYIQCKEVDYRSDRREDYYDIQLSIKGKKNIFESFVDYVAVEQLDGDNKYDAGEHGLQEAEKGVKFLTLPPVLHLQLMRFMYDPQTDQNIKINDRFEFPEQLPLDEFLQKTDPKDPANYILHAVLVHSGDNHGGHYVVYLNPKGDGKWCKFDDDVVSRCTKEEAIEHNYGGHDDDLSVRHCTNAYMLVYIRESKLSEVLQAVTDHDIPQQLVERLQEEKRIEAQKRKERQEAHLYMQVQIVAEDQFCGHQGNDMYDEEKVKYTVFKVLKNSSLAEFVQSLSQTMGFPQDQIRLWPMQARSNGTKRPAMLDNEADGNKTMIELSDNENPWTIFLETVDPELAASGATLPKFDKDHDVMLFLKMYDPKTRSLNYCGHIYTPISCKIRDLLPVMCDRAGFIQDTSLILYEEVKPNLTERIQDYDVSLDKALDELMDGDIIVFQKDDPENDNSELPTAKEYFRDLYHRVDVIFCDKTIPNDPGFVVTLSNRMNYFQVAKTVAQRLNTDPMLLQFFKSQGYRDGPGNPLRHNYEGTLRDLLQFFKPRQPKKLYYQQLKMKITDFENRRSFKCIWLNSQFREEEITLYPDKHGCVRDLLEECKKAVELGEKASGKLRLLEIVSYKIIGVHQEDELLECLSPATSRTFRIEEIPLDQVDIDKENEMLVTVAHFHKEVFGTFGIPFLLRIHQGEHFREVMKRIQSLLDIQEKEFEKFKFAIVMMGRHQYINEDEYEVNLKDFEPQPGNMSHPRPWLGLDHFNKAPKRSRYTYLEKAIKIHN

Row | SMILES | pIC50
1 | N#Cc1cc2c(c(-c3ccnc4cc(Cn5c(=O)ccn(C6CC6)c5=O)sc34)c1)N([C@H]1CCNC1)CCC2 [Example 88, (S)-8-(2-((3-cyclopropyl-2,6-dioxo-2,3-dihydropyrimidin-1(6H)-yl)methyl)thieno[3,2-b]pyridin-7-yl)-1-(pyrrolidin-3-yl)-1,2,3,4-tetrahydroquinoline-6-carbonitrile] | > 8.00
2 | N#Cc1cc2c(c(-c3ncnc4cc(Cn5c(=O)ccn(CC(F)(F)F)c5=O)sc34)c1)N([C@H]1CCNC1)CCC2 [Example 92, (S)-8-(6-((2,6-dioxo-3-(2,2,2-trifluoroethyl)-2,3-dihydropyrimidin-1(6H)-yl)methyl)thieno[3,2-d]pyrimidin-4-yl)-1-(pyrrolidin-3-yl)-1,2,3,4-tetrahydroquinoline-6-carbonitrile] | > 8.00
3 | N#Cc1cc2c(c(-c3ncnc4cc(Cn5c(=O)ccn(CC(F)(F)F)c5=O)sc34)c1)N([C@@H]1CCNC1)CCC2 [Example 93, (R)-8-(6-((2,6-dioxo-3-(2,2,2-trifluoroethyl)-2,3-dihydropyrimidin-1(6H)-yl)methyl)thieno[3,2-d]pyrimidin-4-yl)-1-(pyrrolidin-3-yl)-1,2,3,4-tetrahydroquinoline-6-carbonitrile] | > 8.00
4 | COCCn1ccc(=O)n(Cc2cc3nccc(-c4cc(Cl)cc5c4N([C@@H]4CCNC4)CCC5)c3s2)c1=O [Example 100, (R)-3-((7-(6-chloro-1-(pyrrolidin-3-yl)-1,2,3,4-tetrahydroquinolin-8-yl)thieno[3,2-b]pyridin-2-yl)methyl)-1-(2-methoxyethyl)pyrimidine-2,4(1H,3H)-dione] | > 8.00
5 | O=c1ccn(CC(F)F)c(=O)n1Cc1cc2nccc(-c3cc(Cl)cc4c3N([C@H]3CCNC3)CCC4)c2s1 [Example 101, (S)-3-((7-(6-chloro-1-(pyrrolidin-3-yl)-1,2,3,4-tetrahydroquinolin-8-yl)thieno[3,2-b]pyridin-2-yl)methyl)-1-(2,2-difluoroethyl)pyrimidine-2,4(1H,3H)-dione] | > 8.00
6 | CC(C)CN1CC[C@H](N2CCCc3cc(Cl)cc(-c4ccnc5cc(CN6C(=O)CCC6=O)sc45)c32)C1 [Example 102, (S)-1-((7-(6-chloro-1-(1-isobutylpyrrolidin-3-yl)-1,2,3,4-tetrahydroquinolin-8-yl)thieno[3,2-b]pyridin-2-yl)methyl)pyrrolidine-2,5-dione] | 7.00 to 8.00
7 | CC(F)(F)Cn1ccc(=O)n(Cc2cc3nccc(-c4cc(Cl)cc5c4N([C@H]4CCNC4)CCC5)c3s2)c1=O [Example 103, (S)-3-((7-(6-chloro-1-(pyrrolidin-3-yl)-1,2,3,4-tetrahydroquinolin-8-yl)thieno[3,2-b]pyridin-2-yl)methyl)-1-(2,2-difluoropropyl)pyrimidine-2,4(1H,3H)-dione] | > 8.00
8 | O=c1cc2n(c(=O)n1Cc1cc3nccc(-c4cc(Cl)cc5c4N([C@H]4CCNC4)CCC5)c3s1)CCC2 [Example 106, (S)-2-((7-(6-chloro-1-(pyrrolidin-3-yl)-1,2,3,4-tetrahydroquinolin-8-yl)thieno[3,2-b]pyridin-2-yl)methyl)-6,7-dihydropyrrolo[1,2-c]pyrimidine-1,3(2H,5H)-dione] | > 8.00
9 | O=C1CCC(=O)N1Cc1cc2ncc(F)c(-c3cc(Cl)cc4c3N([C@H]3CCNC3)CCC4)c2s1 [Example 109, 1-((7-(6-chloro-1-((S)-pyrrolidin-3-yl)-1,2,3,4-tetrahydroquinolin-8-yl)-6-fluorothieno[3,2-b]pyridin-2-yl)methyl)pyrrolidine-2,5-dione] | > 8.00
10 | O=C1CCC(=O)N1C1(c2cc3nccc(-c4cc(Cl)cc5c4N([C@H]4CCNC4)CCC5)c3s2)CC1 [Example 110] | 6.00 to 7.00
11 | N#Cc1cc(-c2ccnc3cc(Cn4c(=O)ccn(CC(F)F)c4=O)sc23)c2c(c1)[C@H]1C[C@H]1CN2[C@H]1CCNC1 [Example 117c, (1aR,7bS)-4-(2-((3-(2,2-difluoroethyl)-2,6-dioxo-3,6-dihydropyrimidin-1(2H)-yl)methyl)thieno[3,2-b]pyridin-7-yl)-3-((S)-pyrrolidin-3-yl)-1a,2,3,7b-tetrahydro-1H-cyclopropa[c]quinoline-6-carbonitrile] | 7.00 to 8.00
12 | N#Cc1cc(-c2ccnc3cc(Cn4c(=O)ccn(CC(F)F)c4=O)sc23)c2c(c1)[C@@H]1C[C@@H]1CN2[C@H]1CCNC1 [Example 117d, (1aS,7bR)-4-[2-[[3-(2,2-difluoroethyl)-2,6-dioxo-pyrimidin-1-yl]methyl]thieno[3,2-b]pyridin-7-yl]-3-[(3S)-pyrrolidin-3-yl]-1,1a,2,7b-tetrahydrocyclopropa[c]quinoline-6-carbonitrile] | > 8.00
13 | CC1(C)C[C@H](N2CCCc3cc(Cl)cc(-c4ccnc5cc(CN6C(=O)CCC6=O)sc45)c32)CN1 [Example 119, (S)-1-((7-(6-chloro-1-(5,5-dimethylpyrrolidin-3-yl)-1,2,3,4-tetrahydroquinolin-8-yl)thieno[3,2-b]pyridin-2-yl)methyl)pyrrolidine-2,5-dione] | > 8.00
14 | Cc1cnn(Cc2cc3nccc(-c4cc(C#N)cc5c4N([C@@H]4CN(C)C(C)(C)C4)CCC5)c3s2)c(=O)c1 [Example 122, (S)-8-(2-((4-methyl-6-oxopyridazin-1(6H)-yl)methyl)thieno[3,2-b]pyridin-7-yl)-1-(1,5,5-trimethylpyrrolidin-3-yl)-1,2,3,4-tetrahydroquinoline-6-carbonitrile] | > 8.00
15 | CN1C[C@@H](N2CCCc3cc(C#N)cc(-c4ccnc5cc(Cn6c(=O)ccn(C)c6=O)sc45)c32)CC1(C)C [Example 123, (S)-8-(2-((3-methyl-2,6-dioxo-2,3-dihydropyrimidin-1(6H)-yl)methyl)thieno[3,2-b]pyridin-7-yl)-1-(1,5,5-trimethylpyrrolidin-3-yl)-1,2,3,4-tetrahydroquinoline-6-carbonitrile] | > 8.00
16 | CC1(C)C[C@H](N2CCCc3cc(C#N)cc(-c4ccnc5cc(Cn6c(=O)ccn(CC(F)(F)F)c6=O)sc45)c32)CN1 [Example 125, (S)-1-(5,5-dimethylpyrrolidin-3-yl)-8-(2-((2,6-dioxo-3-(2,2,2-trifluoroethyl)-2,3-dihydropyrimidin-1(6H)-yl)methyl)thieno[3,2-b]pyridin-7-yl)-1,2,3,4-tetrahydroquinoline-6-carbonitrile] | > 8.00

Results, then the molecule that gave them:

Row | pIC50 | SMILES
17 | > 8.00 | CC(F)(F)Cn1ccc(=O)n(Cc2cc3nccc(-c4cc(C#N)cc5c4N([C@H]4CCNC4)CCC5)c3s2)c1=O [Example 89, (S)-8-(2-((3-(2,2-difluoropropyl)-2,6-dioxo-2,3-dihydropyrimidin-1(6H)-yl)methyl)thieno[3,2-b]pyridin-7-yl)-1-(pyrrolidin-3-yl)-1,2,3,4-tetrahydroquinoline-6-carbonitrile]
18 | > 8.00 | O=c1ccn(CC(F)(F)F)c(=O)n1Cc1cc2ncnc(-c3cc(Cl)cc4c3N([C@H]3CCNC3)CCC4)c2s1 [Example 91, (S)-3-((4-(6-chloro-1-(pyrrolidin-3-yl)-1,2,3,4-tetrahydroquinolin-8-yl)thieno[3,2-d]pyrimidin-6-yl)methyl)-1-(2,2,2-trifluoroethyl)pyrimidine-2,4(1H,3H)-dione]
19 | > 8.00 | CC(F)(F)CCn1ccc(=O)n(Cc2cc3nccc(-c4cc(Cl)cc5c4N([C@H]4CCNC4)CCC5)c3s2)c1=O [Example 104, (S)-3-((7-(6-chloro-1-(pyrrolidin-3-yl)-1,2,3,4-tetrahydroquinolin-8-yl)thieno[3,2-b]pyridin-2-yl)methyl)-1-(3,3-difluorobutyl)pyrimidine-2,4(1H,3H)-dione]
20 | > 8.00 | O=c1cc(CC(F)F)cnn1Cc1cc2nccc(-c3cc(Cl)cc4c3N([C@H]3CCNC3)CCC4)c2s1 [Example 105, (S)-2-((7-(6-chloro-1-(pyrrolidin-3-yl)-1,2,3,4-tetrahydroquinolin-8-yl)thieno[3,2-b]pyridin-2-yl)methyl)-5-(2,2-difluoroethyl)pyridazin-3(2H)-one]
21 | > 8.00 | O=c1ccn(CC(F)(F)F)c(=O)n1Cc1cc2nccc(-c3cc(Cl)cc4c3N([C@H]3CCNC3)C[C@H]3C[C@@H]43)c2s1 [Example 114, 3-((7-((1aS,7bR)-6-chloro-3-((S)-pyrrolidin-3-yl)-1a,2,3,7b-tetrahydro-1H-cyclopropa[c]quinolin-4-yl)thieno[3,2-b]pyridin-2-yl)methyl)-1-(2,2,2-trifluoroethyl)pyrimidine-2,4(1H,3H)-dione]
22 | 6.00 to 7.00 | Cc1cc(-c2cc(Cl)cc3c2N([C@H]2CCNC2)CCC3)c2sc(CN3C(=O)CCC3=O)cc2n1 [Example 116, (S)-1-((7-(6-chloro-1-(pyrrolidin-3-yl)-1,2,3,4-tetrahydroquinolin-8-yl)-5-methylthieno[3,2-b]pyridin-2-yl)methyl)pyrrolidine-2,5-dione]
23 | 6.00 to 7.00 | N#Cc1cc(-c2ccnc3cc(Cn4c(=O)ccn(CC(F)F)c4=O)sc23)c2c(c1)[C@H]1C[C@H]1CN2[C@@H]1CCNC1 [Example 117a, (1aR,7bS)-4-(2-((3-(2,2-difluoroethyl)-2,6-dioxo-3,6-dihydropyrimidin-1(2H)-yl)methyl)thieno[3,2-b]pyridin-7-yl)-3-((R)-pyrrolidin-3-yl)-1a,2,3,7b-tetrahydro-1H-cyclopropa[c]quinoline-6-carbonitrile]
24 | 7.00 to 8.00 | N#Cc1cc(-c2ccnc3cc(Cn4c(=O)ccn(CC(F)F)c4=O)sc23)c2c(c1)[C@@H]1C[C@@H]1CN2[C@@H]1CCNC1 [Example 117b, (1aS,7bR)-4-(2-((3-(2,2-difluoroethyl)-2,6-dioxo-2,3-dihydropyrimidin-1(6H)-yl)methyl)thieno[3,2-b]pyridin-7-yl)-3-((R)-pyrrolidin-3-yl)-1a,2,3,7b-tetrahydro-1H-cyclopropa[c]quinoline-6-carbonitrile]
25 | > 8.00 | CC1(C)C[C@H](N2CCCc3cc(C#N)cc(-c4ccnc5cc(CN6C(=O)C7CC7C6=O)sc45)c32)CN1 (stereo partly drawn) [Example 124, 1-((S)-5,5-dimethylpyrrolidin-3-yl)-8-(2-((2,4-dioxo-3-azabicyclo[3.1.0]hexan-3-yl)methyl)thieno[3,2-b]pyridin-7-yl)-1,2,3,4-tetrahydroquinoline-6-carbonitrile]
